The NIST ThermoML archive (doi:10.1021/acs.jced.5b00367)
“And” between values parts separate entries of the source, which are not always exact repeats. Identical values can stand only once.

Assay: wn = mass fraction of the nth substance listed
Conditions: 101 kPa, Liquid, Alternating current cell with electrodes, w1 = 0.01

CCCCCCCCCCCC[N+](CC)(CC)CCCCCCCCCCCC.[Br-] [didodecyldiethylammonium bromide] + O
Conditions	electrical conductivity
279.25 K	0.00329 S/m
279.35 K	0.00328 S/m
279.45 K	0.00328 S/m
279.55 K	0.00328 S/m
279.65 K	0.00329 S/m
279.75 K	0.00331 S/m and 0.00332 S/m
279.85 K	0.00335 S/m
279.95 K	0.00338 S/m and 0.00343 S/m
280.15 K	0.00345 S/m
280.25 K	0.00348 S/m
280.35 K	0.00355 S/m
280.45 K	0.00357 S/m
280.55 K	0.00359 S/m
280.65 K	0.0036 S/m
280.75 K	0.00364 S/m
280.85 K	0.0037 S/m and 0.00371 S/m
280.95 K	0.00378 S/m
281.05 K	0.00381 S/m
281.15 K	0.00381 S/m
281.25 K	0.00371 S/m
281.35 K	0.00377 S/m
281.45 K	0.00374 S/m
281.55 K	0.00378 S/m
281.65 K	0.00378 S/m
281.85 K	0.00378 S/m
281.95 K	0.00374 S/m
282.05 K	0.00366 S/m
282.25 K	0.00373 S/m
282.45 K	0.00366 S/m
282.65 K	0.00365 S/m
282.75 K	0.00364 S/m
282.85 K	0.00356 S/m
283.05 K	0.00356 S/m
283.15 K	0.0036 S/m
283.35 K	0.0034 S/m
283.45 K	0.0036 S/m
283.55 K	0.00354 S/m
283.75 K	0.0035 S/m
283.85 K	0.00351 S/m
283.95 K	0.00346 S/m
284.05 K	0.0035 S/m
284.25 K	0.00354 S/m
284.35 K	0.00354 S/m
284.55 K	0.0034 S/m
284.65 K	0.00355 S/m
284.75 K	0.0035 S/m
284.85 K	0.00345 S/m
284.95 K	0.00352 S/m
285.05 K	0.00342 S/m
285.15 K	0.00344 S/m
285.25 K	0.0035 S/m
285.35 K	0.00344 S/m
285.45 K	0.00344 S/m
285.55 K	0.00342 S/m
285.65 K	0.00343 S/m
285.75 K	0.0034 S/m
285.85 K	0.00342 S/m
285.95 K	0.00343 S/m
286.05 K	0.00348 S/m
286.15 K	0.0034 S/m
286.25 K	0.00342 S/m
286.35 K	0.00341 S/m
286.45 K	0.00343 S/m
286.55 K	0.00339 S/m
286.65 K	0.0034 S/m
286.75 K	0.00347 S/m
286.95 K	0.00347 S/m
287.05 K	0.00347 S/m
287.15 K	0.00344 S/m
287.25 K	0.00341 S/m
287.35 K	0.00345 S/m
287.45 K	0.00347 S/m
287.55 K	0.00345 S/m
287.65 K	0.00341 S/m
287.75 K	0.00342 S/m
287.85 K	0.00343 S/m
287.95 K	0.00348 S/m
288.05 K	0.00344 S/m
288.15 K	0.00345 S/m
288.25 K	0.00342 S/m
288.45 K	0.0035 S/m
288.55 K	0.00357 S/m
288.65 K	0.00345 S/m
288.75 K	0.0035 S/m
288.85 K	0.00345 S/m
288.95 K	0.00346 S/m
289.05 K	0.00344 S/m
289.15 K	0.00349 S/m
289.25 K	0.00346 S/m
289.35 K	0.00352 S/m
289.45 K	0.00346 S/m
289.55 K	0.00347 S/m
289.65 K	0.00352 S/m
289.75 K	0.00352 S/m
289.85 K	0.00352 S/m
289.95 K	0.00351 S/m
290.05 K	0.00357 S/m
290.15 K	0.00348 S/m
290.25 K	0.0035 S/m
290.35 K	0.00347 S/m
290.55 K	0.00355 S/m
290.65 K	0.00364 S/m
290.75 K	0.00356 S/m
290.85 K	0.00359 S/m
290.95 K	0.0036 S/m
291.05 K	0.00358 S/m
291.15 K	0.00361 S/m
291.25 K	0.00357 S/m
291.35 K	0.00362 S/m
291.45 K	0.0036 S/m
291.55 K	0.00366 S/m
291.65 K	0.00359 S/m
291.75 K	0.0036 S/m
